In the experiment the test system is LNCaP cells. In words: Induction of apoptosis (PARP cleavage, Caspase-3 activity). The class given is cell-based, human. To be noted: inferred from the extract experiments.

The values that follow come from US7341749B2, “Flavopereirine and alstonine combinations in the treatment and prevention of prostate cancer” (Natural Source International Ltd., priority 2004, dated 2008).

For `COC(=O)C1=CO[C@@H](C)[C@@H]2Cn3ccc4c5ccccc5nc-4c3C[C@H]12` [alstonine], the “induction of the apoptosis pathway (mechanism of action of the active compound)” value is recorded as “relatively minor effect”.

As for `CCc1ccc2c3[nH]c4ccccc4c3cc[n+]2c1` [flavopereirine], the “induction of the apoptosis pathway (mechanism of action of the active compound)” value is recorded as “primary mechanism of action”.
